Assay [1] has as its system JNK. The experiment in a line: Solid-state phosphorylation assay of JNK in mouse thymocytes. The class given is cell-based. The method, then:
Jurkat cells were grown in RPMI with 10% fetal calf serum (FCS), 1 mM […], 100 μ/ml penicillin (pen), 100 μg/ml streptomycin (strep) and 250 ng/ml amphotericin (complete medium). HeLa S3, CV-1 and FR3T3 cells were grown in DMEM supplemented with 10% FCS, 100 μ/ml pen, 100 μg/ml strep. All cells were cultured at 37° C. with 5% CO2. Mouse thymocytes were prepared from 8 week old Balb/C mice by gradient centrifugation on lymphocyte separation medium (Pharmacia). The lymphocytes were cultured for 5 hours at 37° C. in RPMI+10% FCS, prior to stimulation. Jurkat cells were labelled for 90 minutes with 0.5 mCi/ml ^32P-orthophosphate (ICN Radiochemicals) in medium lacking sodium phosphate. Labelled cells were treated with TPA (Sigma) and A23187 (Calbiochem) 1 μg/ml as indicated. When used, cyclosporin A (CsA) (Sandoz) 100 ng/ml in ethanol was added 10 minutes prior to cell stimulation. Following stimulation, the labelled cells were washed twice with ice-cold PBS then lysed with RIPA buffer (10 mM Tris pH 7.5, 150 mM NaCl, 2 mM EDTA, 1% Triton-X 100, 1% DOC, 0.1% SDS) supplemented with phosphatase inhibitors (20 mM β-glycerophosphate, 10 mM p-nitro-phenylphosphate, 1 mM Na3 VO4), and protease inhibitors (10 μg/ml leupeptin, aprotonin, pepstatin and 1 mM phenylmethyl sulfonylfluoride). c-Jun was immunoprecipitated as described (Binetruy, et al., supra., 1992) and analyzed by SDS-PAGE, followed by peptide mapping (Boyle, et al., Cell, 64:573-584, 1991; Lin, et al. Cell, 70:777-789, 1992). Ha-Ras was immunoprecipitated with Y13-259. Ha-Ras bound nucleotides were extracted and analyzed as described by Satoh, et al., (Proc. Natl. Acad. Sci., USA, 15:5993-5997, 1990).
We examined whether elevated intracellular Ca^++ affects JNK activation in other cells. […] Cultures of FR3T3, CV-1, PC12 and mouse thymocytes were incubated for 15 minutes in the presence of TPA (50 ng/ml, T), A23817 (1 μg/ml, A) and/or CsA (100 ng/ml), as indicated. […] After washing, JNK activity was determined by solid-state phosphorylation assay as described above.

For another assay, the system named is ERK1 and ERK2. The experiment in a line: ERK1 and ERK2 immunecomplex kinase assay with MBP substrate, Jurkat cells and mouse thymocytes. The assay is classed as cell-based, human; mouse. The procedure:
(§1) Exponentially growing cells were stimulated for the indicated times and hypotonic detergent cellular extracts were prepared as described (Hibi, et al., Genes and Dev., supra, 1993). The solid-state phosphorylation assay for measuring JNK activity was performed by incubated extracts with GSTcJun(1-223)-GSH agarose beads as described (Hibi, et al., supra., 1993) and as in Example 2. ERK1 and 2 activity was assayed by an immunecomplex kinase assay using MBP as a substrate (Minden, et al., Nature, 1993).
(§2) JNK is a proline-directed protein kinase activated by extracellular stimuli (Hibi, et al., supra, 1993). In that respect, it resembles the ERK1 and 2 MAP kinases (Boulton, et al., Cell, 65:663-675, 1991). Since ERK1 and 2 appear to be involved in induction of c-fos (Gille, et al., Nature, 358:414-417, 1992; Marais, et al., Cell, 73:381-393, 1993) and could thereby participate in T cell activation, their regulation was examined. ERK1 and ERK2 activities were measured in both Jurkat and mouse thymocytes using an immunecomplex kinase assay and myelin basic protein (MBP) as a substrate. Recombinant, kinase-defective ERK1 was also used a substrate for assaying MEK, the protein kinase responsible for activation of ERK1 and 2 (Crews, et al., Science, 258:478-480, 1992).
(§3) WCE (5 μg) of Jurkat (FIG. 15, panel A) or mouse thymocytes (panel C) were incubated with 1 μg of kinase-defective ERK1 in kinase buffer containing γ-^32P-ATP for 20 minutes. The phosphorylated proteins were separated by SDS-PAGE and the band corresponding to the mutant ERK1 is indicated. WCE (20 μg) of Jurkat (panel B) or mouse thymocytes (panel C) that were treated as described above were immunoprecipitated with anti-ERK antibodies (a gift from Dr. M. Weber). The immune complexes were washed and incubated in kinase buffer containing γ-^32P-ATP and 2 μg MBP for 15 minutes at 30° C. The phosphorylated proteins were separated by SDS-PAGE. The band corresponding to phosphorylated MBP is indicated.

Assay [2] relates to JNK. The experiment in a line: Solid-state phosphorylation assay of JNK on GSTcJun(1-223)-GSH agarose beads, Jurkat cells. The assay is classed as cell-based, human. To be noted: for JNK activation together with suboptimal dose of TPA: A23187, anti-CD3 or anti-CD28 plus suboptimal TPA; for JNK activation, solid-state assay, agent alone: TPA 50 ng/ml or A23187 1 μg/ml, 15 minutes. The method, then:
as §1
JNK can be retained on GSTcJun-glutathione (GSH) agarose affinity resin and its kinase activity measured by phosphorylation of GSTcJun. WCE (50 μg) of Jurkat cells treated as described above were incubated with 5 μl of GSH agarose beads coated with 10 μg GST-cJun (1-223) for 12 hours at 4° C. After extensive washing, the beads were incubated in kinase buffer containing γ-^32P-ATP for 20 minutes at 30° C., after which the proteins were dissociated by incubation in SDS sample buffer and separated by SDS-PAGE (FIG. 13B). The 49 kD band corresponds to GST-cJun (1-223). The faster migrating bands are degradation products (Hibi, et al., supra, 1993).
WCE (50 μg) of Jurkat cells treated as described above were incubated with GSTcJun(1-223)-GSH agarose beads and assayed for JNK activity using the solid-state kinase assay. The same WCE (20 μg) were immunoprecipitated with anti-ERK2 antibodies and assayed for MBP-kinase activity.
WCE (50 μg) of Jurkat cells treated as described in Panel A with various stimuli alone or their combinations were incubated with GSTcJun(1-223)-GSH agarose beads and assayed for JNK activity using solid-state kinase assay. The same samples (20 μg) were also assayed for MBP-kinase activity as described in FIG. 16B.

For another assay, the system named is MEK. The experiment in a line: MEK assay with kinase-defective ERK1 substrate, Jurkat cells and mouse thymocytes. The assay is classed as cell-based, human; mouse. The procedure:
as §2, §3

[3] abbreviates: Jurkat cells or mouse thymocytes.

Four compounds from patent publication US6706509B2, “Oncoprotein protein kinase” (The Regents of the University of California, priority 1993, dated 2004) can be followed below.

On to `CNc1ccc2oc(C[C@H]3O[C@@]4(CC[C@H]3C)O[C@H]([C@H](C)C(=O)c3ccc[nH]3)[C@H](C)C[C@H]4C)nc2c1C(=O)O` [A23187], for which, in the assay with JNK [1] (A23187 1 μg/ml plus TPA), the “JNK activity, costimulation with TPA” value was “enhanced”. In addition, the “ERK activity, effect of A23187 or CsA” value with ERK1 and ERK2 is reported as “had no effect on either activity”. The “JNK activation, solid-state assay, costimulation with TPA” value with JNK [2] (A23187 1 μg/ml plus TPA 50 ng/ml) is given as “strongly potentiated”. In the assay with JNK [2] (Jurkat), the “JNK activation together with suboptimal dose of TPA” value is “strong synergistic activation of JNK” and the “JNK activation, solid-state assay, agent alone” value is given as “had no effect”. For the same compound, the “MEK activity, effect of A23187 or CsA” value with MEK is “had no effect on either activity”.
As for `CCCCCCCCCCCCCC(=O)O[C@@H]1[C@@H](C)[C@@]2(O)[C@@H](C=C(CO)C[C@]3(O)C(=O)C(C)=C[C@@H]23)[C@H]2C(C)(C)[C@]12OC(C)=O` [TPA], in the assay on JNK [1] (TPA 50 ng/ml, 15 minutes), the “JNK activity, TPA alone” value was “moderate increase in JNK activity”. The “ERK activity, TPA treatment” value in the assay on ERK1 and ERK2 (setting [3]) is given as “fully stimulated”. Further, in the assay with JNK [2] (Jurkat), the “JNK activation, suboptimal dose of TPA by itself” value is given as “does not lead to JNK activation” and the “JNK activation, solid-state assay, agent alone” value is given as “activation of JNK”. Further, the “MEK activity, TPA treatment” value in the assay with MEK (setting [3]) is listed as “fully stimulated”.
As to “anti-CD3: anti-CD3 monoclonal antibody OKT3”, the “JNK activation together with suboptimal dose of TPA” value with JNK [2] (Jurkat) is recorded as “strong synergistic activation of JNK”. Moreover, the “JNK activation, combined treatment with A23187” value with JNK [2] (Jurkat, anti-CD3 or anti-CD28 plus A23187) was “efficiently activated”.
Consider cyclosporin A [CsA], for which the “JNK activity, CsA added to TPA+A23187” value with JNK [1] (CsA 100 ng/ml) is reported as “inhibited”. In the assay on ERK1 and ERK2, the “ERK activity, effect of A23187 or CsA” value is on record as “had no effect on either activity”. In addition, the “JNK activation, solid-state assay, CsA added to TPA+A23187” value in the assay with JNK [2] (CsA 100 ng/ml) was “inhibited”. Also, the “JNK activation by suboptimal TPA+A23187, effect of CsA” value in the assay on JNK [2] (Jurkat) is reported as “completely inhibited”. Besides, the “JNK activation by anti-CD3+anti-CD28, effect of CsA” value in the assay with JNK [2] (Jurkat, CsA 100 ng/ml) is on record as “partially attenuated this effect”. Besides, the “MEK activity, effect of A23187 or CsA” value in the assay on MEK is listed as “had no effect on either activity”.
